{"source": "patent US20160122340A1", "about": "“HISTONE DEACETYLASE INHIBITORS BASED ON DERIVATIVES OF TRICYCLIC POLYHYDROACRIDINE AND ANALOGS POSSESSING FUSED SATURATED FIVE-AND-SEVEN-MEMBERED RINGS” (QUIMATRYX, S.L., priority 2013, published 2016)", "key": {"Human HDAC3/NcoR2": {"biological_target": "T1, Human HDAC3/NcoR2 (Homo sapiens, UniProt O15379)", "T1 construct": "Complex of human HDAC3, full length with C-terminal His tag, MW=49.7 kDa; His (C); purchased BioMol SE-507; host or cells: baculovirus expression system", "T1 sequence (O15379 whole entry, canonical isoform)": "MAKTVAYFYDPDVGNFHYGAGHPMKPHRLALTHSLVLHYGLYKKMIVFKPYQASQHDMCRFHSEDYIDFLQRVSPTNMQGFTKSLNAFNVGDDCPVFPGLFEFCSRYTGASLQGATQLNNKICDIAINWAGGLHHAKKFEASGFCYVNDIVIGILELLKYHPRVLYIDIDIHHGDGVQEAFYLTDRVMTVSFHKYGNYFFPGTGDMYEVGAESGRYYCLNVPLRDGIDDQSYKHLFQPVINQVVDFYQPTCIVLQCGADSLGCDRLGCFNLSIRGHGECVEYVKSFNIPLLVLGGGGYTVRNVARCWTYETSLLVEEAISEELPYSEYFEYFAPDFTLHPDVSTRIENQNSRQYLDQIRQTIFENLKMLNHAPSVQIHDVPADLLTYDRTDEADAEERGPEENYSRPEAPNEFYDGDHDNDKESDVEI", "T1 sequence (Q9Y618 395-489 partner limits assumed)": "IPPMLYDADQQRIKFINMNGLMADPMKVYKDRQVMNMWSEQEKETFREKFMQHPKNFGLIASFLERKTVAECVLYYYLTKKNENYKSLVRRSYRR", "assay": "In vitro HDAC3 inhibition, fluorogenic peptide substrate", "format": "biochemical", "conditions": "read-out: IC50 (μM) HDAC-3", "description": "(§1) In Vitro Inhibitory Activity of Histone Deacetylase: Human Isoforms HDAC1, 2, 3, 4, 5, 6, 7, 8, 9, 10 and 11 and HeLa Cell Line Nuclear Extract (IC50 Data)\n(§2) All HDAC assays were performed using acetylated AMC-labeled peptide substrate: • Substrate for isoforms HDAC1, 2, 3, 6, 10, 11 and HeLa nuclear extract assays: Acetylated fluorogenic peptide from p53 residues 379-382 (RHKKAc). • Substrate for isoforms HDAC 4, 5, 7, 9: Fluorogenic Boc-L-Lys(ε-trifluoroacetyl)-AMC. • Substrate for HDAC8 assays: Acetylated fluorogenic peptide from p53 residues 379-382 (RHKAcKAc).\n(§3) 50 μM of substrate peptide (see ‘substrate peptides’ section above) and an optimal concentration of the corresponding enzyme (see ‘enzymes’ section above) in the assay buffer and 1% final concentration of DMSO were incubated in the presence of gradient concentrations of inhibitors (10-dose IC50 mode with 3-fold serial dilution) at 30° C. for 2 h. The reactions were carried out in a 96-well microplate for fluorometry in a 50 μl reaction volume. After the deacetylation reaction, Fluor-de-Lys-Developer (BioMol Cat. # KI-105) was added to each well to digest the deacetylated substrate, thus producing the fluorescent signal. The reaction was allowed to develop for 45 minutes at 30° C. with 5% CO2; then the fluorescent signal was measured with an excitation wavelength at 360 nm and an emission wavelength at 460 nm in a microplate-reading fluorometer (GeminiXS; Molecular Devices, Sunnyvale, Calif.). A curve of Deacetylated Standard (Biomol, Cat. # KI-142; made from 100 μM with 1:2 dilution and 10-doses, 6 μl) allowed the conversion of fluorescent signal into micromoles of deacetylated product. All experiments were performed in triplicate. IC50 was calculated by fitting the experimental data to a dose-response curve. DMSO was used as negative control; Trichostatin A (Biomol Cat. # GR-309) was used as positive control inhibitor."}, "Human HDAC6": {"biological_target": "T2, Human HDAC6 (Homo sapiens, UniProt Q9UBN7)", "T2 construct": "Full length with N-terminal GST tag, MW=159 kDa; GST (N); purchased BioMol SE-508; host or cells: baculovirus / Sf9 cells", "T2 sequence (Q9UBN7 1-1215)": "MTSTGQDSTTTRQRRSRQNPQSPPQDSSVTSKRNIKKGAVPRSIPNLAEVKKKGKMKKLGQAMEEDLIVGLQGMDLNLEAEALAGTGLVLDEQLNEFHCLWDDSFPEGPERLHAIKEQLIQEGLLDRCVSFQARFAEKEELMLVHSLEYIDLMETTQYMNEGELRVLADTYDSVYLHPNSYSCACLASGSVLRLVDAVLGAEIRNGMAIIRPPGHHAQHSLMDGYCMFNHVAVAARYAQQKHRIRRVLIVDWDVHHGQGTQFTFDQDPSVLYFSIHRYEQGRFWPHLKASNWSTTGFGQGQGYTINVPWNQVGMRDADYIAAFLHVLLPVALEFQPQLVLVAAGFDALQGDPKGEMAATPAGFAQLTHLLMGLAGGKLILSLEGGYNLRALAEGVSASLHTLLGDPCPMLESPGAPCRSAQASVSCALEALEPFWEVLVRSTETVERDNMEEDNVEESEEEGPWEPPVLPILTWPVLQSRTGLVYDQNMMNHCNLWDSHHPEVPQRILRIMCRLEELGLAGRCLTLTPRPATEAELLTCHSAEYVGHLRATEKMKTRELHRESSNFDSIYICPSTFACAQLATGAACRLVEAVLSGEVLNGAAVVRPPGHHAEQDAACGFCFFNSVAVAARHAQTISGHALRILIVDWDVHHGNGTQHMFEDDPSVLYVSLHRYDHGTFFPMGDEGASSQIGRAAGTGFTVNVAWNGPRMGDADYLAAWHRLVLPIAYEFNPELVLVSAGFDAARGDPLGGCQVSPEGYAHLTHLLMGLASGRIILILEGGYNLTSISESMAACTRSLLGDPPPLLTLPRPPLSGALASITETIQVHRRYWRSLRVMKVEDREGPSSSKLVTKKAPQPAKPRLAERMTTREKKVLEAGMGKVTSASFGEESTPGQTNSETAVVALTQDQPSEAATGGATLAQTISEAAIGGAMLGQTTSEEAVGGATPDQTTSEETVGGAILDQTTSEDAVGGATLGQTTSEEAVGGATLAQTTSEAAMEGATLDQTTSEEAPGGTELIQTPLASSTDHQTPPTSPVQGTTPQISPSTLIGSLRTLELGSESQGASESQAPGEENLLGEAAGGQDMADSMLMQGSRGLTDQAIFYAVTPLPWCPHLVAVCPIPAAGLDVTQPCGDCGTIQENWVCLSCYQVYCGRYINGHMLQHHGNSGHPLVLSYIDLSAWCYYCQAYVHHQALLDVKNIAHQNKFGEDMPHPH", "assay": "In vitro HDAC6 inhibition, fluorogenic peptide substrate", "format": "biochemical", "conditions": "read-out: IC50 (μM) HDAC-6", "description": "as §1, §2, §3"}, "Human HDAC11": {"biological_target": "T3, Human HDAC11 (Homo sapiens, UniProt Q96DB2)", "T3 construct": "GST (N); purchased BioMol SE-560; host or cells: baculovirus expression system", "T3 sequence (Q96DB2 1-347)": "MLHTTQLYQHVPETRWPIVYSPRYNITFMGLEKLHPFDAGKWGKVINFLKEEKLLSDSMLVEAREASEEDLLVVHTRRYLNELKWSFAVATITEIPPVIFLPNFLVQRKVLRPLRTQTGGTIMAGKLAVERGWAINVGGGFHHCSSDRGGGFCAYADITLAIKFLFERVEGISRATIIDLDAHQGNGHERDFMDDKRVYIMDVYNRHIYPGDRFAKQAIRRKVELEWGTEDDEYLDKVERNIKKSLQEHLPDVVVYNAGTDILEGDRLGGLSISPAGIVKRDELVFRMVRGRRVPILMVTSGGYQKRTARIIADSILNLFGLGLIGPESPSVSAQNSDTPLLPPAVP", "assay": "In vitro HDAC11 inhibition, fluorogenic peptide substrate", "format": "biochemical", "conditions": "read-out: IC50 (μM) HDAC-11", "description": "as §1, §2, §3"}}}
{"smiles": "O=C(CCCCCCNC(=O)c1c2c(nc3ccccc13)CCCC2)NO", "note": "[Example 11, N-[7-(hydroxyamino)-7-oxoheptyl]-1,2,3,4-tetrahydroacridine-9-carboxamide]", "values": [{"measurement": "IC50", "setting": "Human HDAC3/NcoR2", "result": 3.62, "unit": "µM"}, {"measurement": "IC50", "setting": "Human HDAC6", "result": 0.19, "unit": "µM"}, {"measurement": "melting point", "result": "185 to 186", "unit": "°C"}, {"measurement": "IC50", "setting": "Human HDAC11", "result": 4.1, "unit": "µM"}]}
{"smiles": "COc1cccc2c(NCCCCCCC(=O)NO)c3c(nc12)CCCC3", "note": "[Example 5, N-hydroxy-7-[(5-methoxy-1,2,3,4-tetrahydroacridin-9-yl)amino]heptanamide]", "values": [{"measurement": "IC50", "setting": "Human HDAC3/NcoR2", "result": 0.66, "unit": "µM"}, {"measurement": "IC50", "setting": "Human HDAC6", "result": 0.015, "unit": "µM"}, {"measurement": "melting point", "result": 361, "unit": "°C"}, {"measurement": "IC50", "setting": "Human HDAC11", "result": 1.04, "unit": "µM"}]}
{"smiles": "O=C(CCCCCNC(=O)c1c2c(nc3ccccc13)CCCC2)NO", "note": "[Example 10, N-[6-(hydroxyamino)-6-oxohexyl]-1,2,3,4-tetrahydroacridine-9-carboxamide]", "values": [{"measurement": "IC50", "setting": "Human HDAC3/NcoR2", "result": "> 5", "unit": "µM"}, {"measurement": "IC50", "setting": "Human HDAC6", "result": 0.33, "unit": "µM"}, {"measurement": "melting point", "result": "187 to 188", "unit": "°C"}, {"measurement": "IC50", "setting": "Human HDAC11", "result": "> 5", "unit": "µM"}]}
{"smiles": "O=C(CCCCCCNc1c2c(nc3cnccc13)CCCC2)NO", "note": "[Example 8, N-hydroxy-7-[(6,7,8,9-tetrahydrobenzo[b][1,7]naphthyridin-5-yl)amino]heptanamide]", "values": [{"measurement": "IC50", "setting": "Human HDAC3/NcoR2", "result": 1.88, "unit": "µM"}, {"measurement": "IC50", "setting": "Human HDAC6", "result": 0.033, "unit": "µM"}, {"measurement": "melting point", "result": 56.7, "unit": "°C"}, {"measurement": "IC50", "setting": "Human HDAC11", "result": 0.6, "unit": "µM"}]}
{"smiles": "O=C(CCCCCCNc1c2c(nc3ccccc13)CCC2)NO", "note": "[Example 3, 7-[(2,3-dihydro-1H-cyclopenta[b]quinolin-9-yl)amino]-N-hydroxyheptanamide]", "values": [{"measurement": "IC50", "setting": "Human HDAC3/NcoR2", "result": 0.36, "unit": "µM"}, {"measurement": "melting point", "result": "165 to 166", "unit": "°C"}, {"measurement": "IC50", "setting": "Human HDAC11", "result": 0.44, "unit": "µM"}]}
{"smiles": "O=C(CCCCCCNc1c2c(nc3ccccc13)CCCCC2)NO", "note": "[Example 4, N-hydroxy-7-[(7,8,9,10-tetrahydro-6H-cyclohepta[b]quinolin-11-yl)amino]heptanamide]", "values": [{"measurement": "IC50", "setting": "Human HDAC3/NcoR2", "result": 0.74, "unit": "µM"}, {"measurement": "IC50", "setting": "Human HDAC6", "result": 0.015, "unit": "µM"}, {"measurement": "melting point", "result": "155 to 156", "unit": "°C"}, {"measurement": "IC50", "setting": "Human HDAC11", "result": 1.22, "unit": "µM"}]}
{"smiles": "O=C(CCCCCNc1c2c(nc3ccccc13)CCCC2)NO", "note": "[Example 1, N-hydroxy-6-[(1,2,3,4-tetrahydroacridin-9-yl)amino]hexanamide]", "values": [{"measurement": "IC50", "setting": "Human HDAC3/NcoR2", "result": 2.84, "unit": "µM"}, {"measurement": "IC50", "setting": "Human HDAC6", "result": 0.036, "unit": "µM"}, {"measurement": "melting point", "result": "162 to 164", "unit": "°C"}, {"measurement": "IC50", "setting": "Human HDAC11", "result": 2.21, "unit": "µM"}]}
{"smiles": "O=C(CCCCCCNc1c2c(nc3ncccc13)CCCC2)NO", "note": "[Example 7, N-hydroxy-7-[(6,7,8,9-tetrahydrobenzo[b][1,8]naphthyridin-5-yl)amino]heptanamide]", "values": [{"measurement": "IC50", "setting": "Human HDAC3/NcoR2", "result": 2.44, "unit": "µM"}, {"measurement": "IC50", "setting": "Human HDAC6", "result": 0.038, "unit": "µM"}, {"measurement": "melting point", "result": "234 to 235", "unit": "°C"}, {"measurement": "IC50", "setting": "Human HDAC11", "result": 0.69, "unit": "µM"}]}
{"smiles": "O=C(CCCCCCNc1c2c(nc3ccccc13)CCCC2)NO", "note": "[Example 2, N-hydroxy-7-[(1,2,3,4-tetrahydroacridin-9-yl)amino]heptanamide]", "values": [{"measurement": "IC50", "setting": "Human HDAC3/NcoR2", "result": 0.42, "unit": "µM"}, {"measurement": "IC50", "setting": "Human HDAC6", "result": 0.01, "unit": "µM"}, {"measurement": "melting point", "result": "156 to 157", "unit": "°C"}, {"measurement": "IC50", "setting": "Human HDAC11", "result": 0.59, "unit": "µM"}]}
